Measurements reported in ChEMBL document CHEMBL4665856, “Design and synthesis of new disubstituted benzoxazolone derivatives that act as iNOS inhibitors with potent anti-inflammatory activity against LPS-induced acute lung injury (ALI)” (Bioorg Med Chem, 2020).
Calls of active or inactive are those of the source. The rule behind the calls is not given here.

Key:
[1] = test system: RAW264.7; assay: Anti-inflammatory activity in mouse RAW264.7 cells assessed as inhibition of LPS-induced nitric oxide synthase production measured after 24 hrs by ELISA; assay type: functional, cell-based; details: RAW264.7, 24 h
[2] = test system: RAW264.7; assay: Antiinflammatory activity in mouse RAW264.7 cells assessed as reduction in LPS-induced IL-6 production at 12.5 uM measured after 24 hrs by ELISA; assay type: functional, cell-based
[3] = test system: RAW264.7; assay: Cytotoxicity against mouse RAW 264.7 cells assessed as reduction in cell proliferation at 25 uM by MTT assay; assay type: cell-based; details: raw264.7, 25 µM
[4] = biological target: T1, Nitric oxide synthase, inducible (Mus musculus, UniProt P29477); assay: Inhibition of iNOS in mouse RAW264.7 cells assessed as inhibition of LPS-induced nitric oxide overproduction incubated for 24 hrs by Griess assay; assay type: cell-based
T1 sequence (P29477 whole entry): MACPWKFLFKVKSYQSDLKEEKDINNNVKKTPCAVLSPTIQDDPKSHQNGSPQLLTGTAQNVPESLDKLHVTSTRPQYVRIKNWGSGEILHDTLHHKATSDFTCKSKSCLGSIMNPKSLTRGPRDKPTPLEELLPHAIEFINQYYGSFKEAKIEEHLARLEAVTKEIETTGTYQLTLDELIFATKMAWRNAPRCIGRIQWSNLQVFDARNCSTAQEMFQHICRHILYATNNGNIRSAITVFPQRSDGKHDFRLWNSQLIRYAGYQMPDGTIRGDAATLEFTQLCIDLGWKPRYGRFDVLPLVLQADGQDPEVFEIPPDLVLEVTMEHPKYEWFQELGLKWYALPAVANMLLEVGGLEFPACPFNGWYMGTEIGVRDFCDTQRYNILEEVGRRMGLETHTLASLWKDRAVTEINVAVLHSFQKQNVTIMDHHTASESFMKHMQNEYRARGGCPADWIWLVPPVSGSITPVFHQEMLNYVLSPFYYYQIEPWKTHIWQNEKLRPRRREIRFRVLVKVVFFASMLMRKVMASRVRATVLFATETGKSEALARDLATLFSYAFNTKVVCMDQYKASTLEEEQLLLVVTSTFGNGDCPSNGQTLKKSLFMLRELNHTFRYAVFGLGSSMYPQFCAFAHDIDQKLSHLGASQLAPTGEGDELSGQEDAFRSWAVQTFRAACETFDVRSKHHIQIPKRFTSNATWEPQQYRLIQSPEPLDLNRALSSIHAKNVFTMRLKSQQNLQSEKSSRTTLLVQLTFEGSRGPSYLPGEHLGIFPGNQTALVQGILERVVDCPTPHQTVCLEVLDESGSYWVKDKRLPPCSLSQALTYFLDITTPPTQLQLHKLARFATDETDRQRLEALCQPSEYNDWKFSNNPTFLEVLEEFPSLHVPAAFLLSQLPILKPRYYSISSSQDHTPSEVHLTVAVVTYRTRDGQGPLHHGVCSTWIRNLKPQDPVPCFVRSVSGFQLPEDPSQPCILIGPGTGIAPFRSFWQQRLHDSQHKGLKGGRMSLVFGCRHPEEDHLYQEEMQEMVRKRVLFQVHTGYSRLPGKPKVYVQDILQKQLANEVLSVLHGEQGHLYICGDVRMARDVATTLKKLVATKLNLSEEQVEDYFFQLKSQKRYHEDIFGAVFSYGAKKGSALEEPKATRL

[5] = test system: RAW264.7; assay: Antiinflammatory activity in mouse RAW264.7 cells assessed as reduction in LPS-induced TNF-alpha production at 12.5 uM measured after 24 hrs by ELISA; assay type: functional, cell-based
[6] = test system: Mus musculus; assay: Anti-inflammatory activity in Kunming mouse assessed as inhibition of xylene-induced ear edema at 12.5 mg/kg, po dosed 1 hr prior to xylene challenge and measured at 30 mins post xylene injection relative to control; assay type: functional; details: 1.5 h, time 90 min
[7] = test system: RAW264.7; assay: Antiinflammatory activity in mouse RAW264.7 cells assessed as reduction in LPS-induced IL-1 beta production at 12.5 uM measured after 24 hrs by ELISA; assay type: functional, cell-based
[8] = test system: Mus musculus; assay: (§1) Anti-inflammatory activity against LPS-induced ALI Kunming mouse model assessed as reduction in TNF-alpha level in serum at 3.125 to 12.5 mg/kg, po administered 4 hrs prior to LPS instillation and measured at 12 hrs post-LPS instillation by ELISA; assay type: functional, organism-based; details: dose mg/kg 3.125-12.5, time 16.0 hrs
[9] = test system: Mus musculus; assay: Anti-inflammatory activity against LPS-induced ALI Kunming mouse model assessed as reduction in iNOS expression in lung at 3.125 to 12.5 mg/kg, po administered 4 hrs prior to LPS instillation and measured at 12 hrs post-LPS instillation by immunohistochemistry; assay type: functional, organism-based; details: dose mg/kg 3.125-12.5, time 16.0 hrs
[10] = test system: Mus musculus; assay: Anti-inflammatory activity against LPS-induced ALI Kunming mouse model assessed as reduction in IL-1 beta level in serum at 3.125 to 12.5 mg/kg, po administered 4 hrs prior to LPS instillation and measured at 12 hrs post-LPS instillation by ELISA; assay type: functional, organism-based; details: dose mg/kg 3.125-12.5, time 16.0 hrs
[11] = test system: Mus musculus; assay: Anti-inflammatory activity against LPS-induced ALI Kunming mouse model assessed as reduction in IL-6 level in serum at 3.125 to 12.5 mg/kg, po administered 4 hrs prior to LPS instillation and measured at 12 hrs post-LPS instillation by ELISA; assay type: functional, organism-based; details: dose mg/kg 3.125-12.5, time 16.0 hrs
[12] = test system: RAW264.7; assay: Anti-inflammatory activity in mouse RAW264.7 cells assessed as reduction in LPS-induced iNOS mRNA expression at 12.5 uM by RT-PCR analysis; assay type: functional, cell-based
[13] = test system: Mus musculus; assay: Anti-inflammatory activity against LPS-induced ALI Kunming mouse model assessed as reduction in lung edema by measuring reduction in lung wet-to-dry ratio at 3.125 to 12.5 mg/kg, po administered 4 hrs prior to LPS instillation and measured at 12 hrs post-LPS instillation; assay type: functional, organism-based; details: dose mg/kg 3.125-12.5, time 16.0 hrs
[14] = test system: Mus musculus; assay: Anti-inflammatory activity against LPS-induced ALI Kunming mouse model assessed as reduction in iNOS level in serum at 3.125 to 12.5 mg/kg, po administered 4 hrs prior to LPS instillation and measured at 12 hrs post-LPS instillation by ELISA; assay type: functional, organism-based; details: dose mg/kg 3.125-12.5, time 16.0 hrs
[15] = test system: Mus musculus; assay: as §1, with “inflammatory infiltration” for “TNF-alpha level”, “lungs and pulmonary congestion” for “serum”, “hematoxylin-eosin staining based analysis” for “ELISA”; assay type: functional, organism-based; details: dose mg/kg 3.125-12.5, time 16.0 hrs
[16] = test system: Mus musculus; assay: Anti-inflammatory activity against LPS-induced ALI Kunming mouse model assessed as reduction in neutrophil infiltration in lungs by measuring decrease in MPO activity at 3.125 to 12.5 mg/kg, po administered 4 hrs prior to LPS instillation and measured at 12 hrs post-LPS instillation; assay type: functional, organism-based; details: dose mg/kg 3.125-12.5, time 16.0 hrs
[17] = species on record: Mus musculus; details: Kunming, dose 12.5 mg/kg, time 90.0 min

## Cn1cnc(S(=O)(=O)Oc2cccc3oc(=O)n(CCc4ccccc4)c23)c1
[1]
  IC50: 9.73 µM
[2]
  Activity: Active
[3]
  Activity: Non-Toxic
[4]
  IC50: 13.4 µM
[5]
  Activity: Active
[6]
  inhibition in vivo at 12.5 mg/kg: > 50%
[7]
  Activity: Active

## CN(C)c1cccc2c(S(=O)(=O)Oc3cccc4oc(=O)n(Cc5ccccc5)c34)cccc12
[1]
  IC50: 4.61 µM
[2]
  Activity: Active
[3]
  Activity: Non-Toxic
[4]
  IC50: 16.4 µM
[5]
  Activity: Active
[6]
  inhibition in vivo at 12.5 mg/kg: > 50%
[7]
  Activity: Active

## Cc1ccc(Cn2c(=O)oc3cccc(OS(=O)(=O)c4cn(C)cn4)c32)cc1
[3]
  Activity: Non-Toxic

## Cn1cnc(S(=O)(=O)Oc2cccc3oc(=O)n(Cc4ccccc4)c23)c1
[2]
  Activity: Active
[3]
  Activity: Non-Toxic
[5]
  Activity: Active
[6]
  inhibition in vivo at 12.5 mg/kg: > 50%
[7]
  Activity: Active

## CN(C)c1cccc2c(S(=O)(=O)Oc3cccc4oc(=O)n(CCc5ccccc5)c34)cccc12
[8]
  Activity: Dose-dependent effect
[9]
  Activity: Dose-dependent effect
[1]
  IC50: 3.34 µM
[2]
  Activity: Active
[3]
  Activity: Non-Toxic
[4]
  IC50: 14.7 µM
[10]
  Activity: Dose-dependent effect
[11]
  Activity: Dose-dependent effect
[12]
  Activity: Active
[13]
  Activity: Dose-dependent effect
[14]
  Activity: Dose-dependent effect
[15]
  Activity: Dose-dependent effect
[16]
  Activity: Dose-dependent effect
[5]
  Activity: Active
[6]
  inhibition in vivo at 12.5 mg/kg: > 50%
[7]
  Activity: Active

## Cn1cnc(S(=O)(=O)Oc2cccc3oc(=O)n(Cc4ccc([N+](=O)[O-])cc4)c23)c1
[3]
  Activity: Non-Toxic

## Cc1ccccc1S(=O)(=O)Oc1cccc2oc(=O)n(CCc3ccccc3)c12
[3]
  Activity: Non-Toxic

## N=C(NCCC[C@H](N)C(=O)O)N[N+](=O)[O-] [NITROARGININE]
[1]
  IC50: 2.92 µM
[4]
  IC50: 27.6 µM
[17]
  inhibition: Active
